The results in this text go back to patent US3968129A, “Azidophenol amine compounds and therapeutic compositions” (Boehringer Mannheim G.m.b.H., priority 1974, dated 1976).

One data set is described as follows: in vivo. The following applies: iv; for LD50: mouse, i.v. into tail vein within 5 seconds, dosage at which 50% of the mice die, read-out: Acute Toxicity LD50 Mouse; for therapeutic index (LD50/DE250): ratio of LD50 (mouse i.v.) to DE250 (wake rabbit i.v.). Here is the method:
(§1) The following tests were carried out to determine the cardiac β-receptor blocking activity and the acute toxicity of certain compounds representative of the invention, as well as of a conventional comparison compound.
In another series of tests, the acute toxicity in mice of the test compounds by intravenous administration was determined as a measure of the tolerance (calculated as LD50 = dosage at which 50% of the mice die). The substances were injected, within a time period of 5 seconds, in dissolved form into the tail vein of 5 male and 5 female mice each, in increasing dosages. From the results (percentage of dead animals) at the various dosages, the mean lethal dosage was ascertained graphically or by way of programmed test analysis.
The results of both series of tests are set forth in the table below which contains, in addition, a calculated value expressing the ratio of LD50 : DE250 for each test compound.

Another data set concerns cardiac β-receptor. The experiment in a line: Cardiac β-receptor blocking activity: inhibition of isoprenalin-induced heart frequency increase (tachycardia) in wake rabbits. It counts as in vivo. Conditions: wake rabbit; for Blocking of Isoprenalin Tachycardia in wake rabbits: Heartbeat Frequency x±sx: isoprenalin 1 μg/kg i.v. 30 min after infusion; for DE250: interpolated dosage which limits the frequency increase to 250 beats/min. Here is the method: as §1
The cardiac β-receptor blocking activity of the test compounds was evaluated by determination of the inhibition of isoprenalin-induced heart frequency increase in wake rabbits. This type of inhibition is a typical property of β-receptor blocking bio catalysts.
The tests were carried out on rabbits weighing between 2 to 3.5 kg settled in wooden cages with EKG-electrodes inserted into the hind-quarters s.c. The heart frequency was read via an integrator (15 seconds) as a digital value. The substances to be tested were infused through a small tube to the ear vein of the rabbits over a period of 15 minutes 30 minutes after completion of the infusion, isoprenalin (1 μg/kg) was intravenously injected. The results were set forth in terms of the reduction of the heartbeat increase induced by isoprenalin and a value (DE250) calculated as the dosage required to limit such increase to 250 heart beats/min.

Take `CC(=O)Nc1ccc(OCC(O)CNC(C)C)cc1` (stereo not shown) [Comparison Compound A, 4-[2-hydroxy-3-isopropylaminopropoxy]acetanilide, reference compound]: the median lethal dose (LD50) in the data set “in vivo” came to 69 mg/kg. The “Blocking of Isoprenalin Tachycardia in wake rabbits: Heartbeat Frequency x±sx” value (“Blocking of Isoprenalin Tachycardia” for short) amounted to 307± 7 Beats/minute with cardiac β-receptor (dosage 0.5 mg/kg i.v.); 264± 9 Beats/minute in the data set on cardiac β-receptor (dosage 1.0 mg/kg i.v.); 250± 4 Beats/minute in the data set with cardiac β-receptor (dosage 2.0 mg/kg i.v.); 246± 7 Beats/minute in the data set with cardiac β-receptor (dosage 5.0 mg/kg i.v.); 217± 4 Beats/minute in the data set with cardiac β-receptor (dosage 10.0 mg/kg i.v.); 225± 6 Beats/minute in the data set with cardiac β-receptor (dosage 20.0 mg/kg i.v.). For the same compound, in the data set on cardiac β-receptor, the DE250 amounted to 2.5 mg/kg i.v.
For the compound `CC(C)NCC(O)COc1ccccc1N=[N+]=[N-]` (stereo not shown) [Compound 1, 2-(2-Hydroxy-3-isopropylaminopropoxy)-azidobenzene], the LD50 in “in vivo” was 25 mg/kg. For the same compound, the therapeutic index (LD50/DE250) in the data set “in vivo” is 80. Besides, the “Blocking of Isoprenalin Tachycardia” value turned out to be 288± 8 Beats/minute with cardiac β-receptor (dosage 0.01 mg/kg i.v.); 252±10 Beats/minute in the data set on cardiac β-receptor (dosage 0.1 mg/kg i.v.); 250± 5 Beats/minute with cardiac β-receptor (dosage 0.5 mg/kg i.v.); 236±11 Beats/minute in the data set on cardiac β-receptor (dosage 1.0 mg/kg i.v.); 223± 6 Beats/minute in the data set on cardiac β-receptor (dosage 5.0 mg/kg i.v.). In the data set with cardiac β-receptor, this compound came in with a DE250 of 0.3 mg/kg i.v.
On to `CC(C)NCC(O)COc1cccc(N=[N+]=[N-])c1` (stereo not shown) [Compound 2, 3-(2-Hydroxy-3-isopropylaminopropoxy)-azidobenzene], for which the median lethal dose (LD50) in the data set “in vivo” is 50 mg/kg. In “in vivo”, the therapeutic index (LD50/DE250) came out at 40. Moreover, the “Blocking of Isoprenalin Tachycardia” value with cardiac β-receptor (dosage 0.5 mg/kg i.v.) is listed as 282± 9 Beats/minute; in the data set on cardiac β-receptor (dosage 1.0 mg/kg i.v.), 258±10 Beats/minute; in the data set with cardiac β-receptor (dosage 5.0 mg/kg i.v.), 205± 9 Beats/minute. This compound registered a DE250 with cardiac β-receptor of 1.3 mg/kg i.v.
Regarding `CC(C)(C)NCC(O)COc1cccc(N=[N+]=[N-])c1` (stereo not shown) [Compound 3, 3-(2-Hydroxy-3-tert.-butylaminopropoxy)-azidobenzene], the LD50 in “in vivo” came out at 50 mg/kg. Besides, in “in vivo”, the therapeutic index (LD50/DE250) was determined as 60. In addition, the “Blocking of Isoprenalin Tachycardia” value with cardiac β-receptor (dosage 0.1 mg/kg i.v.) is 317±10 Beats/minute; with cardiac β-receptor (dosage 0.5 mg/kg i.v.) it was 256±10 Beats/minute; in the data set on cardiac β-receptor (dosage 2.0 mg/kg i.v.), 222± 6 Beats/minute; in the data set on cardiac β-receptor (dosage 5.0 mg/kg i.v.), 235±10 Beats/minute; in the data set with cardiac β-receptor (dosage printed "10" mg/kg i.v. (Compound 3 line)), 244± 8 Beats/minute. The compound also showed a DE250 in the data set with cardiac β-receptor of 0.8 mg/kg i.v.
For `CC(C)(C)NCC(O)COc1ccccc1N=[N+]=[N-]` (stereo not shown) [Compound 4, 2-(2-Hydroxy-3-tert.-butylaminopropoxy)-azidobenzene], the LD50 in “in vivo” stood at 29 mg/kg. Moreover, in “in vivo”, the therapeutic index (LD50/DE250) worked out at 58. The “Blocking of Isoprenalin Tachycardia” value with cardiac β-receptor (dosage 0.1 mg/kg i.v.) was found to be 282± 5 Beats/minute; in the data set with cardiac β-receptor (dosage 0.5 mg/kg i.v.), 237± 7 Beats/minute; with cardiac β-receptor (dosage 1.0 mg/kg i.v.), 246± 6 Beats/minute; in the data set with cardiac β-receptor (dosage 5.0 mg/kg i.v.) it was 245±14 Beats/minute. In the data set with cardiac β-receptor, this compound registered a DE250 of 0.5 mg/kg i.v.

Broadly, the LD50 is the dose expected to kill half of the subjects tested.
